Measured values from paper PMC6272185 (Molecules, 2015).
≈ marks a conversion by molar mass, not a printed value. Where two headings read alike, the source gives them in different places.

Columns and labels:
[1] = test system: TNF-α production by LPS-stimulated RAW 264.7 macrophages; assay: Inhibition of TNF-α production by LPS-stimulated macrophages (ELISA); format: cell-based, murine; settings: for IC50: Mus musculus, RAW264.7, LPS (1 µg/mL)-stimulated RAW 264.7, 24 h, mean ± SD, n = 3, read-out: IC50 TNF-α
[2] = test system: M. bovis BCG; assay: microbe, parasite or virus in culture; format: cell-based, Mycobacterium bovis BCG; settings: for MIC50 / MIC90: Mycobacterium tuberculosis variant bovis BCG, BCG, 168 h; for MIC50: read-out: MIC50 M. bovis BCG; for MIC90: read-out: MIC90 M. bovis BCG
[3] = test system: PGE2 production by LPS-stimulated RAW 264.7 macrophages; assay: Inhibition of PGE2 production by LPS-stimulated macrophages (ELISA); format: cell-based, murine; settings: Mus musculus, RAW264.7, 24 h, read-out: IC50 PGE2
Method: (§1) Murine RAW 264.7 macrophage cell line (American Type Culture Collection, Manassas, VA, USA), was cultured in Dulbecco’s modified Eagle’s medium (DMEM-F12) supplemented with 10% Fetal Bovine Serum (FBS) and gentamicin (50 µg/mL) in 5% CO2 atmosphere at 37 °C. For experiments, the cells were seeded in 96-well plates (1 × 10^5 cells/well) and incubated for 24 h at 37 °C. For macrophage stimulation, the cell cultures were treated with LPS (1 µg/mL) and incubated for additional 24 h in the presence or absence of the chalcone samples (samples 1–41) that were used at concentrations of 100, 20, 4 and 0.8 µg/mL. In some experiments, a nitric oxide (NO) inhibitor, L-NMMA (20 μg/mL), was used as a positive control of NO inhibition, and a non-steroidal anti-inflammatory drug indomethacin, known to inhibit production of prostaglandins, was used as a positive control of PGE2 inhibition.
(§2) The frozen culture supernatants samples were thawed and immediately analyzed using commercially available enzyme-linked immunosorbent assay (ELISA) kits to measure TNF-α, IL-1β (BD Biosciences) and PGE2 (R&D Systems, Minneapolis, MN, USA), according to the manufacturer’s instructions. Standard curves for each mediator were generated using reference cytokine concentrations supplied by the manufacturer. Nitric oxide (NO) generation was assessed by the Griess method to measure nitrites, which are stable breakdown NO products.

[4] = test system: M. tuberculosis H37Rv; assay: microbe, parasite or virus in culture; format: cell-based, Mycobacterium tuberculosis; settings: Mycobacterium tuberculosis
[5] = test system: RAW 264.7 macrophages infected with M. tuberculosis H37Rv; assay: Toxicity for infected macrophages, LDH assay; format: cell-based, murine; settings: Mus musculus, RAW264.7, 96 h; infected RAW 264.7, 4 days treatment; Figure 3D
Method: Cytotoxic effects of chalcone samples on RAW 264.7 cell viability in cultures stimulated with LPS were determined using the LDH (lactate dehydrogenase) release assay as previously described. Cytoplasmic enzyme LDH release into cell culture supernatants was detected using a commercial LDH kit (Doles, GO, Brazil). Cell death was expressed as percentage of LDH release, which was calculated using the following formula: percentage of LDH release = 100 × (test LDH release − spontaneous release)/(maximum release − spontaneous release). The maximum release was determined following dissolution of cell monolayers using 1% (vol/vol) Triton X-100. The spontaneous release was determined in supernatants from cultures incubated in the presence of LPS and DMSO, used as a solvent for chalcone samples.
(§3) RAW 264.7 macrophages were plated (1 × 10^5 cells/well) in antibiotic-free DMEM-F12 medium supplemented with 10% fetal bovine serum and incubated for 24 h. Prior to infection, mycobacterial suspensions were sonicated for 1 minute to disperse clumps and optical densities were adjusted to 0.1. The macrophage cultures were infected at a MOI of 1:1 (macrophage: bacterium). Phagocytosis was allowed to progress for 3 h. After 3 h, extracellular mycobacteria were removed by washing with PBS 1X and the infected cell monolayers were treated for 4 days with chalcone samples or rifampicin. Macrophage viability was monitored by LDH assay and was over 80% in all experiments. On day 4 after infection, cells were lysed cells with 1% saponin to release intracellular bacteria. Lysate aliquots were diluted 10-fold in PBS, plated in triplicates on 7H10 agar plates and incubated at 37 °C. After 21 days, total CFU were determined.

[6] = Macrophage cytotoxicity, LDH release assay; format: cell-based, murine; settings: mouse, RAW 264.7 macrophages stimulated with LPS; LPS-stimulated RAW 264.7, LDH release; mean ± SD, n = 3
Method: (§4) Cytotoxic effects of chalcone samples on RAW 264.7 cell viability in cultures stimulated with LPS were determined using the LDH (lactate dehydrogenase) release assay as previously described [58]. Cytoplasmic enzyme LDH release into cell culture supernatants was detected using a commercial LDH kit (Doles, GO, Brazil). Cell death was expressed as percentage of LDH release, which was calculated using the following formula: percentage of LDH release = 100 × (test LDH release − spontaneous release)/(maximum release − spontaneous release). The maximum release was determined following dissolution of cell monolayers using 1% (vol/vol) Triton X-100. The spontaneous release was determined in supernatants from cultures incubated in the presence of LPS and DMSO, used as a solvent for chalcone samples.

[7] = test system: M. tuberculosis M299; assay: microbe, parasite or virus in culture; format: cell-based, Mycobacterium tuberculosis; settings: for MIC50 / MIC90: Mycobacterium tuberculosis, M299, 120 h
[8] = test system: NO production by LPS-stimulated RAW 264.7 macrophages; assay: Inhibition of NO production by LPS-stimulated macrophages (Griess); format: cell-based, murine; settings: mean ± SD, n = 3
[9] = test system: IL-1β production by LPS-stimulated RAW 264.7 macrophages; assay: Inhibition of IL-1β production by LPS-stimulated macrophages (ELISA); format: cell-based, murine; settings: for IC50: Mus musculus, RAW264.7, 24 h, read-out: IC50 IL-1β
Method: as §1, §2

[10] = test system: M. tuberculosis strain H37Rv in RAW 264.7 macrophages; assay: Intracellular growth of M. tuberculosis H37Rv in infected macrophages (CFU); format: cell-based, Mycobacterium tuberculosis; settings: Mycobacterium tuberculosis, H37RV, 96 h, infected RAW 264.7, MOI 1:1, 4 days, Figure 3C
Method: as §3

[11] = test system: RAW 264.7 macrophages; assay: Macrophage cytotoxicity, LDH release assay; format: cell-based, murine; settings: LDH release
Method: as §4

[12] = H37RV, 120 h, read-out: MIC50 M. tuberculosis H37Rv
[13] = Table 5, same values as M. tuberculosis H37Rv in Table 3, read-out: MIC50
[14] = LPS (1 µg/mL)-stimulated RAW 264.7, 24 h, read-out: IC50 NO
[15] = Mus musculus, RAW264.7, 24 h, read-out: IC50 NO, LPS (1 µg/mL)-stimulated RAW 264.7, 24 h
[16] = Mus musculus, RAW264.7, 24 h, LPS (1 µg/mL)-stimulated RAW 264.7, 24 h, read-out: IC50 NO

| SMILES | IC50 [1] [µM] | MIC50 [2] [µM] | MIC90 [2] [µM] | IC50 [3] [µM] | MIC90 ([4]; H37RV, 120 h) [µM] | MIC50 [4, 12] [µM] | MIC50 [4, 13] [µM] | IC50 [5] [µM] | IC50 [6] [µM] | MIC50 [7] [µM] | MIC90 [7] [µM] | IC50 [8, 14] [µM] | IC50 [8, 15] [µM] | IC50 [9] [µM] | MIC50 [10] [µM] | cytotoxicity profile [11] | IC50 [8, 16] [µM] | also measured |
| --- | --- | --- | --- | --- | --- | --- | --- | --- | --- | --- | --- | --- | --- | --- | --- | --- | --- | --- |
| COc1ccc(C(=O)/C=C/c2ccccc2)cc1 [Chalcone 24] | 78.8 ± 6.5 | 31.5 ± 5.9 (≈ 7.51 µg/mL) | 399 ± 6.9 (≈ 95.1 µg/mL) | 90 ± 3.4 | 375 ± 6.8 (≈ 89.3 µg/mL) | 25.3 ± 5.2 (≈ 6.03 µg/mL) | 25.3 ± 5.2 (≈ 6.03 µg/mL) | 319 ± 4.6 | 245 ± 4.5 | > 420 | > 420 | 21.3 ± 4.5 | < 21 | 56.6 ± 3.5 | 42.6 ± 3.1 (≈ 10.2 µg/mL) | – | – | inhibition of TNF-α ([1]; LPS-stimulated RAW 264.7): strongly inhibit; activity against M299 compared with H37Rv [7]: significantly less potent; inhibition of IL-1β ([9]; LPS-stimulated RAW 264.7): potent inhibitors |
| COc1ccc(/C=C/C(=O)c2ccc(OC)cc2)cc1 [Chalcone 29] | > 373 | 32.5 ± 5.4 (≈ 8.72 µg/mL) | 339.5 ± 3.2 (≈ 91.1 µg/mL) | – | – | – | – | – | 93.9 ± 4.9 | – | – | 13.1 ± 4.2 | < 21 | – | – | worst cytotoxicity profiles | – | – |
| COc1ccc(C(=O)/C=C/c2ccc(F)cc2)cc1 [Chalcone 25] | > 390 | 15.8 ± 5.2 (≈ 4.05 µg/mL) | 228 ± 5.8 (≈ 58.5 µg/mL) | 57.5 ± 2.1 | 366.1 ± 3.6 (≈ 93.8 µg/mL) | 25.1 ± 5.2 (≈ 6.43 µg/mL) | 25.1 ± 5.2 (≈ 6.43 µg/mL) | 264 ± 4.4 | > 390 | 18.5 ± 3.6 (≈ 4.74 µg/mL) | 366.9 ± 0.3 (≈ 94 µg/mL) | – | – | > 390 | 49.1 ± 1.7 (≈ 12.6 µg/mL) | – | 41.2 ± 4.6 | – |
| O=C(/C=C/c1ccccc1)c1ccc(Br)cc1 [Chalcone 8] | 66.9 ± 4.5 | 13.4 ± 4 (≈ 3.85 µg/mL) | 33.7 ± 4.6 (≈ 9.68 µg/mL) | – | 326 ± 3.3 (≈ 93.6 µg/mL) | 10.5 ± 3.8 (≈ 3.02 µg/mL) | 10.5 ± 3.8 (≈ 3.02 µg/mL) | 66.1 ± 1.5 | 191 ± 5.2 | 10.2 ± 4.9 (≈ 2.93 µg/mL) | 344.7 ± 0.4 (≈ 99 µg/mL) | – | – | – | 13.5 ± 0.6 (≈ 3.88 µg/mL) | – | 46.4 ± 2.3 | MIC90 M. bovis BCG ([2]; culture, 7 days, MTT): 33.7 ± 4.6 µM (≈ 9.68 µg/mL) |
| O=C(/C=C/c1ccc(Cl)cc1)c1ccc(Br)cc1 [Chalcone 10] | > 311 | 22.3 ± 6.3 (≈ 7.17 µg/mL) | 288 ± 3.2 (≈ 92.6 µg/mL) | – | – | – | – | – | 113.4 ± 0.5 | – | – | – | – | – | – | worst cytotoxicity profiles | 68.9 ± 4.3 | – |
| CN(C)c1ccc(/C=C/C(=O)c2ccc(Br)cc2)cc1 [Chalcone 11] | > 303 | 67.8 ± 3.8 (≈ 22.4 µg/mL) | 242 ± 2.6 (≈ 79.9 µg/mL) | – | – | – | – | – | 132 ± 2.9 | – | – | – | – | – | – | worst cytotoxicity profiles | 41.3 ± 3.5 | – |
